Data from PMC12281475, “Mediator Kinase Inhibitor Selectivity and Activity in Colorectal Cancer” (ACS Chemical Biology, 2025).
pIC50: −log10 of the molar value.

What was measured:
CDK9_CycT1 = target: T1, CDK9_CycT1 (Homo sapiens, UniProt P50750); test: Radiometric protein kinase assay (33PanQinase), CDK9_CycT1; type: biochemical
T1 construct: purchased Reaction Biology

CDK15_CycA2 = target: T2, CDK15_CycA2 (Homo sapiens, UniProt Q96Q40); test: Radiometric protein kinase assay (33PanQinase), CDK15_CycA2; type: biochemical
T2 construct: purchased Reaction Biology

CDK14_CycY = CDK14_CycY (Homo sapiens, UniProt O94921); test: Radiometric protein kinase assay (33PanQinase), CDK14_CycY; type: biochemical
CDK17_p35NCK = CDK17_p35NCK (Homo sapiens, UniProt Q00537); test: Radiometric protein kinase assay (33PanQinase), CDK17_p35NCK; type: biochemical
CDK2_CycA2 = target: T3, CDK2_CycA2 (Homo sapiens, UniProt P24941); test: Radiometric protein kinase assay (33PanQinase), CDK2_CycA2; type: biochemical
T3 construct: purchased Reaction Biology

CDK11B 357-795_CycK = CDK11B 357-795_CycK (Homo sapiens, UniProt P21127); test: Radiometric protein kinase assay (33PanQinase), CDK11B 357-795_CycK; type: biochemical
CDK4_CycD1 = target: T4, CDK4_CycD1 (Homo sapiens, UniProt P11802); test: Radiometric protein kinase assay (33PanQinase), CDK4_CycD1; type: biochemical
T4 construct: purchased Reaction Biology

CDK12_CycK = target: T5, CDK12_CycK (Homo sapiens, UniProt Q9NYV4); test: Radiometric protein kinase assay (33PanQinase), CDK12_CycK; type: biochemical
T5 construct: purchased Reaction Biology

CDK3_CycC = target: T6, CDK3_CycC (Homo sapiens, UniProt Q00526); test: Radiometric protein kinase assay (33PanQinase), CDK3_CycC; type: biochemical
T6 construct: purchased Reaction Biology

CDK13_CycK = target: T7, CDK13_CycK (Homo sapiens, UniProt Q14004); test: Radiometric protein kinase assay (33PanQinase), CDK13_CycK; type: biochemical; details: slope of the IC50 fit
T7 construct: purchased Reaction Biology

CDK1_CycB1 = target: T8, CDK1_CycB1 (Homo sapiens, UniProt P06493); test: Radiometric protein kinase assay (33PanQinase), CDK1_CycB1; type: biochemical
T8 construct: purchased Reaction Biology

CDK2_CycD1 = target: T9, CDK2_CycD1 (Homo sapiens, UniProt P24941); test: Radiometric protein kinase assay (33PanQinase), CDK2_CycD1; type: biochemical; details: slope of the IC50 fit
T9 construct: purchased Reaction Biology

CDK5_p25NCK = target: T10, CDK5_p25NCK (Homo sapiens, UniProt Q00535); test: Radiometric protein kinase assay (33PanQinase), CDK5_p25NCK; type: biochemical; details: slope of the IC50 fit
T10 construct: purchased Reaction Biology

CDK8_CycC = target: T11, CDK8_CycC (Homo sapiens, UniProt P49336); test: Radiometric protein kinase assay (33PanQinase), CDK8_CycC; type: biochemical; details: slope of the IC50 fit
T11 construct: purchased Reaction Biology

CDK18_CycY = CDK18_CycY (Homo sapiens, UniProt Q07002); test: Radiometric protein kinase assay (33PanQinase), CDK18_CycY; type: biochemical
CDK10_CycQ = CDK10_CycQ (Homo sapiens, UniProt Q15131); test: Radiometric protein kinase assay (33PanQinase), CDK10_CycQ; type: biochemical
CDK20_CycT1 = CDK20_CycT1 (Homo sapiens, UniProt Q8IZL9); test: Radiometric protein kinase assay (33PanQinase), CDK20_CycT1; type: biochemical
CDK6_CycD3 = target: T12, CDK6_CycD3 (Homo sapiens, UniProt Q00534); test: Radiometric protein kinase assay (33PanQinase), CDK6_CycD3; type: biochemical
T12 construct: purchased Reaction Biology

CDK4_CycD2 = target: T13, CDK4_CycD2 (Homo sapiens, UniProt P11802); test: Radiometric protein kinase assay (33PanQinase), CDK4_CycD2; type: biochemical
T13 construct: purchased Reaction Biology

CDK4_CycD3 = target: T14, CDK4_CycD3 (Homo sapiens, UniProt P11802); test: Radiometric protein kinase assay (33PanQinase), CDK4_CycD3; type: biochemical
T14 construct: purchased Reaction Biology

CDK1_CycE1 = target: T15, CDK1_CycE1 (Homo sapiens, UniProt P06493); test: Radiometric protein kinase assay (33PanQinase), CDK1_CycE1; type: biochemical
T15 construct: purchased Reaction Biology

CDK16_CycY = target: T16, CDK16_CycY (Homo sapiens, UniProt Q00536); test: Radiometric protein kinase assay (33PanQinase), CDK16_CycY; type: biochemical
T16 construct: purchased Reaction Biology

CDK9_CycK = target: T17, CDK9_CycK (Homo sapiens, UniProt P50750); test: Radiometric protein kinase assay (33PanQinase), CDK9_CycK; type: biochemical
T17 construct: purchased Reaction Biology

CDK19_CycC = target: T18, CDK19_CycC (Homo sapiens, UniProt Q9BWU1); test: Radiometric protein kinase assay (33PanQinase), CDK19_CycC; type: biochemical
T18 construct: purchased Reaction Biology

CDK2_CycE1 = target: T19, CDK2_CycE1 (Homo sapiens, UniProt P24941); test: Radiometric protein kinase assay (33PanQinase), CDK2_CycE1; type: biochemical
T19 construct: purchased Reaction Biology

CDK6_CycD1 = target: T20, CDK6_CycD1 (Homo sapiens, UniProt Q00534); test: Radiometric protein kinase assay (33PanQinase), CDK6_CycD1; type: biochemical; details: slope of the IC50 fit
T20 construct: purchased Reaction Biology

CDK1_CycA2 = target: T21, CDK1_CycA2 (Homo sapiens, UniProt P06493); test: Radiometric protein kinase assay (33PanQinase), CDK1_CycA2; type: biochemical
T21 construct: purchased Reaction Biology

CDK5_p35NCK = target: T22, CDK5_p35NCK (Homo sapiens, UniProt Q00535); test: Radiometric protein kinase assay (33PanQinase), CDK5_p35NCK; type: biochemical
T22 construct: purchased Reaction Biology

CDK6_CycD2 = target: T23, CDK6_CycD2 (Homo sapiens, UniProt Q00534); test: Radiometric protein kinase assay (33PanQinase), CDK6_CycD2; type: biochemical
T23 construct: purchased Reaction Biology

CDK3_CycE1 = target: T24, CDK3_CycE1 (Homo sapiens, UniProt Q00526); test: Radiometric protein kinase assay (33PanQinase), CDK3_CycE1; type: biochemical; details: slope of the IC50 fit
T24 construct: purchased Reaction Biology

CDK7_CycH_MAT1 = target: T25, CDK7_CycH_MAT1 (Homo sapiens, UniProt P50613); test: Radiometric protein kinase assay (33PanQinase), CDK7_CycH_MAT1; type: biochemical
T25 construct: purchased Reaction Biology

CDK20_CycH = CDK20_CycH (Homo sapiens, UniProt Q8IZL9); test: Radiometric protein kinase assay (33PanQinase), CDK20_CycH; type: biochemical
CDK8 = system: CDK8; parameters: method as in numbers not given; details: reporter displacement assay; previously characterized compounds, no method in this paper; ref numbers not given; read-out: IC50 for in vitro CDK8 binding; cited from earlier work
[1] = highest assay concentration 1.00E-05 M
[2] = highest assay concentration 1.00E-05 M, read-out: IC50

Sequence of CDK14_CycY (O94921 whole entry): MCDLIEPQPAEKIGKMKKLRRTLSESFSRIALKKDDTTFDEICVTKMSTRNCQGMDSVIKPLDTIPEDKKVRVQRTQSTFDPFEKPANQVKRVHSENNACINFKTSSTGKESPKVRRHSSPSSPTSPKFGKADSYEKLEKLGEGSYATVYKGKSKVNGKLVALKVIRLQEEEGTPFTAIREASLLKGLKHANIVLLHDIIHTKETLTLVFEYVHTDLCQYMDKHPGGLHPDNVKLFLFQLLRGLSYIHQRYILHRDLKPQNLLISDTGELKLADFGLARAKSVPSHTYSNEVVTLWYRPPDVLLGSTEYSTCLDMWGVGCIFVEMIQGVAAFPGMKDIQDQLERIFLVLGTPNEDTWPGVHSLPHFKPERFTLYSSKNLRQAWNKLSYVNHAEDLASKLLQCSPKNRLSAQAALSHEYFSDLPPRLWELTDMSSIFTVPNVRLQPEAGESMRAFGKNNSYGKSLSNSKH
Sequence of CDK14_CycY (Q8ND76 whole entry partner): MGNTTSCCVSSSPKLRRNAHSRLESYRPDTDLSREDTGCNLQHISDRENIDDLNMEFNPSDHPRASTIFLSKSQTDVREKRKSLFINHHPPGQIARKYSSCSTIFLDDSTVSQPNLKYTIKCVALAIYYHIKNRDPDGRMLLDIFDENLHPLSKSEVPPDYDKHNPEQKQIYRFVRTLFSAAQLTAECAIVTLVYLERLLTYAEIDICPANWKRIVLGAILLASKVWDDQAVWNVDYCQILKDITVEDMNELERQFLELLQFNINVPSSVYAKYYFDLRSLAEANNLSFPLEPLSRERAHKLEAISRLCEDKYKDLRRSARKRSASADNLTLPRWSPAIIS
T22 sequence (Q00535 whole entry): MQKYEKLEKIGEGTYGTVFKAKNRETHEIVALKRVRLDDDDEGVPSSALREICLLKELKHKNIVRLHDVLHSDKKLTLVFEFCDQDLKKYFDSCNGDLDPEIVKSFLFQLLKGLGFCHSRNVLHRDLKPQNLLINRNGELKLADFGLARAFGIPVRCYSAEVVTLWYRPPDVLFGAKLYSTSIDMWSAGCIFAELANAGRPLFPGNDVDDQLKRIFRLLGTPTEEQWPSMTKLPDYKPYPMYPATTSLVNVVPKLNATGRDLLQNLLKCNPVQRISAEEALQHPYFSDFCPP
T22 sequence (Q15078 whole entry partner): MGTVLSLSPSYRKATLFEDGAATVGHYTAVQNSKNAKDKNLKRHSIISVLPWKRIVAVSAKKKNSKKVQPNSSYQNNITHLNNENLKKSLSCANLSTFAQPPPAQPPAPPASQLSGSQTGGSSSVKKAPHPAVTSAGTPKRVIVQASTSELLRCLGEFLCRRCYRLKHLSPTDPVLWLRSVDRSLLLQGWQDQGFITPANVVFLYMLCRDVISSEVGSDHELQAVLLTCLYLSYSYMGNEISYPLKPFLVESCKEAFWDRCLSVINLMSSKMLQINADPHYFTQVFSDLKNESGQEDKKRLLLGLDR
T6 sequence (Q00526 whole entry): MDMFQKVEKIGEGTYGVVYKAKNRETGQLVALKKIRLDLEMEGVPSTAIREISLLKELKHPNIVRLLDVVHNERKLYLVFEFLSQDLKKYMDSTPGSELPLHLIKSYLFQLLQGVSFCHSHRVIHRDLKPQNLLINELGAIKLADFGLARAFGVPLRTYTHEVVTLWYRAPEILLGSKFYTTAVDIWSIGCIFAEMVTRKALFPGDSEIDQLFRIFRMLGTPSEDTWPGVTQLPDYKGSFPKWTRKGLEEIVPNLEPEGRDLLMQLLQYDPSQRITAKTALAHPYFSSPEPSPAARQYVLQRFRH
T6 sequence (P24863 whole entry partner): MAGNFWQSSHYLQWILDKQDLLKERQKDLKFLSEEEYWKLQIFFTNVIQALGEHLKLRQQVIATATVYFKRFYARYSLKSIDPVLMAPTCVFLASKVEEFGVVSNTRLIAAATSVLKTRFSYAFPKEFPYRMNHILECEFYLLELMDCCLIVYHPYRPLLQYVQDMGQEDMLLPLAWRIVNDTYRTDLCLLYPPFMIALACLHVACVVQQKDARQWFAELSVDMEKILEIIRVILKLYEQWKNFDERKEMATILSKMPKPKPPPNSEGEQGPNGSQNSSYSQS
Sequence of CDK20_CycT1 (Q8IZL9 whole entry): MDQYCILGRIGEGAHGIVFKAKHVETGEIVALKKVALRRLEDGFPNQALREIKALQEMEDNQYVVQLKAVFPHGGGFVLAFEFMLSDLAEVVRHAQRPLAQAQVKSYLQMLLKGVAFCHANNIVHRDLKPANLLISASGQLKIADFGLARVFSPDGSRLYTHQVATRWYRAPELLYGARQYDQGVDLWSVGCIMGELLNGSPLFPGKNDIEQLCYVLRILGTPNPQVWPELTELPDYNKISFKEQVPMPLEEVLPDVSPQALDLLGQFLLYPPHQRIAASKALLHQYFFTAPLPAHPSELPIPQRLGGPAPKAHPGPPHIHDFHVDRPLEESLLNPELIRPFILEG
Sequence of CDK20_CycH (Q8IZL9 whole entry): as above
T2 sequence (Q96Q40 whole entry): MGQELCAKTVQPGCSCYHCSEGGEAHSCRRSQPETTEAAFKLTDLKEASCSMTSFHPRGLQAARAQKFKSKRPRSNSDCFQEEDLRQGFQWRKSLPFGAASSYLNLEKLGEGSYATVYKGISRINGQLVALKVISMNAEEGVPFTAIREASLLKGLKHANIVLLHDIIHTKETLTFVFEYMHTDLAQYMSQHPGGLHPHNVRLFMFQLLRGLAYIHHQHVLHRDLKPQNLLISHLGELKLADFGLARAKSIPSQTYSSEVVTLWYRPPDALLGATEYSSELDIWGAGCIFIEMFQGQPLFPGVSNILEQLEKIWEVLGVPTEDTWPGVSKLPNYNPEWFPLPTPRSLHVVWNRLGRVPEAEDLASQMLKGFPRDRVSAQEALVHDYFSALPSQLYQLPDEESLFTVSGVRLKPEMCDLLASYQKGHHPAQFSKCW
T8 sequence (P06493 whole entry): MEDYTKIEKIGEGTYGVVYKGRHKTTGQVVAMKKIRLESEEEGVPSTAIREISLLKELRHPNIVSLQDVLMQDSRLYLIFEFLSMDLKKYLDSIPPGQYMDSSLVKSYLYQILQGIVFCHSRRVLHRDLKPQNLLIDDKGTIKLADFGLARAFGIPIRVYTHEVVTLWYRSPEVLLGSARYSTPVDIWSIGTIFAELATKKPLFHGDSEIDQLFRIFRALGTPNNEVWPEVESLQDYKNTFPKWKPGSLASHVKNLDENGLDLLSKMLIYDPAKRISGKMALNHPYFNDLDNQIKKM
T8 sequence (P14635 whole entry partner): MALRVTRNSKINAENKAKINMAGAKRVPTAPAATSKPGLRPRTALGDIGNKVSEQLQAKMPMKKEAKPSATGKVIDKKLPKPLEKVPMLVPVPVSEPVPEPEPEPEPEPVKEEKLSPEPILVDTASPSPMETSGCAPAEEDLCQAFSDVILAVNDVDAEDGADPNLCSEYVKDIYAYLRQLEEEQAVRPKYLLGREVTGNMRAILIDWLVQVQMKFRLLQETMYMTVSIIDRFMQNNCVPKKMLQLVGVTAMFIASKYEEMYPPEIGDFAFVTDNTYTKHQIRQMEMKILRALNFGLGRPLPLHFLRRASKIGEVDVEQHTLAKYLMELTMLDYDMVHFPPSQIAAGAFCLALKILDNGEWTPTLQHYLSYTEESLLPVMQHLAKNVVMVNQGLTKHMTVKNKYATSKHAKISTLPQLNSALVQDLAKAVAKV
Sequence of CDK18_CycY (Q07002 whole entry): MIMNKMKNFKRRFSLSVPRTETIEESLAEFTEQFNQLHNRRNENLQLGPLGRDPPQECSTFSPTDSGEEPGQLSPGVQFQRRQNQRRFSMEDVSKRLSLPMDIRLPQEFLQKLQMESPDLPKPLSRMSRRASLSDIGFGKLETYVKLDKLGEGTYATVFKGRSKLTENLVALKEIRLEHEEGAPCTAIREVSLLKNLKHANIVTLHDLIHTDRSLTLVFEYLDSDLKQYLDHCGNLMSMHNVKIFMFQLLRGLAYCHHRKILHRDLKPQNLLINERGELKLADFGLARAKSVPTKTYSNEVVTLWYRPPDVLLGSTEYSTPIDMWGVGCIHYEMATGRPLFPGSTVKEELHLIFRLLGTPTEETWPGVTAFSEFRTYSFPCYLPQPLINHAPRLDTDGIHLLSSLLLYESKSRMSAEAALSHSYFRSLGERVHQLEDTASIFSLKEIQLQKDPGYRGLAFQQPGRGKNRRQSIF
Sequence of CDK18_CycY (Q8ND76 whole entry partner): as the sequence (Q8ND76 whole entry partner) above
Sequence of CDK17_p35NCK (Q00537 whole entry): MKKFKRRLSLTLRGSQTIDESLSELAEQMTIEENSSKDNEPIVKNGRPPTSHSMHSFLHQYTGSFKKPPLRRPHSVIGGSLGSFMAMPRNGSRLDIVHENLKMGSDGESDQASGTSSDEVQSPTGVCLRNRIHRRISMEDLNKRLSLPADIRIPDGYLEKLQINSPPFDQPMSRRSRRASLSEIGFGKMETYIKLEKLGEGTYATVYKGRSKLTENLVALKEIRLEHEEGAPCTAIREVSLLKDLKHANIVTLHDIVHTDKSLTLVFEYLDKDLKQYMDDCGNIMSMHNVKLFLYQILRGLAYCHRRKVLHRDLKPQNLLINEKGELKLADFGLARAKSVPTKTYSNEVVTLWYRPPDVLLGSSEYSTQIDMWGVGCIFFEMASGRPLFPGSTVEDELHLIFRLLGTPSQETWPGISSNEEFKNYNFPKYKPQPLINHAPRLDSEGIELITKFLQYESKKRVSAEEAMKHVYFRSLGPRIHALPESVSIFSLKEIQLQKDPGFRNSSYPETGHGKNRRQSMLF

For `Cn1ncc2cc(-c3cnc(N)c(Cl)c3N3CCC4(CCNC4=O)CC3)ccc21` [CCT251921], the pIC50 (CDK9_CycT1; [1]) was less than 5.00, the “Hill Slope” value (CDK9_CycT1; slope of the IC50 fit) was -1.01 and the pIC50 (CDK15_CycA2; [1]) was less than 5.00. The “Hill Slope” value (CDK15_CycA2; slope of the IC50 fit) was -0.85, the pIC50 (CDK14_CycY; [1]) was less than 5.00 and the “Hill Slope” value (CDK14_CycY; slope of the IC50 fit) was -0.73. The pIC50 (CDK17_p35NCK; [1]) was less than 5.00, the “Hill Slope” value (CDK17_p35NCK; slope of the IC50 fit) was -0.39 and the pIC50 (CDK2_CycA2; [2]) was less than 5.00. The “Hill Slope” value (CDK2_CycA2; slope of the IC50 fit) was -0.89, the pIC50 (CDK11B 357-795_CycK; [1]) was less than 5.00 and the “Hill Slope” value (CDK11B 357-795_CycK; slope of the IC50 fit) was -0.41. The pIC50 (CDK4_CycD1; [1]) was less than 5.00, the “Hill Slope” value (CDK4_CycD1; slope of the IC50 fit) was -0.37 and the pIC50 (CDK12_CycK; [1]) was less than 5.00. The “Hill Slope” value (CDK12_CycK; slope of the IC50 fit) was -0.32, the pIC50 (CDK3_CycC) was less than 5.00 and the “Hill Slope” value (CDK3_CycC; slope of the IC50 fit) was -0.55. The “Hill Slope” value (CDK13_CycK) was 0.03, the pIC50 (CDK1_CycB1; [1]) was less than 5.00 and the “Hill Slope” value (CDK1_CycB1; slope of the IC50 fit) was -0.32. The “Hill Slope” value (CDK2_CycD1) was 0, the “Hill Slope” value (CDK5_p25NCK) was -0.17 and the “Hill Slope” value (CDK8_CycC) was -0.55. For the same compound, the pIC50 (CDK18_CycY; [1]) was less than 5.00, the “Hill Slope” value (CDK18_CycY; slope of the IC50 fit) was -0.84 and the pIC50 (CDK10_CycQ; [1]) was less than 5.00. For the same compound, the “Hill Slope” value (CDK10_CycQ; slope of the IC50 fit) was -0.72, the pIC50 (CDK20_CycT1; [1]) was less than 5.00 and the “Hill Slope” value (CDK20_CycT1; slope of the IC50 fit) was -0.33. The pIC50 (CDK6_CycD3; [1]) was less than 5.00, the “Hill Slope” value (CDK6_CycD3; slope of the IC50 fit) was -0.33 and the pIC50 (CDK4_CycD2; [1]) was less than 5.00. The “Hill Slope” value (CDK4_CycD2; slope of the IC50 fit) was -0.33, the pIC50 (CDK4_CycD3; [1]) was less than 5.00 and the “Hill Slope” value (CDK4_CycD3; slope of the IC50 fit) was -0.37. The pIC50 (CDK1_CycE1; [2]) was less than 5.00, the “Hill Slope” value (CDK1_CycE1; slope of the IC50 fit) was -0.77 and the pIC50 (CDK16_CycY; [1]) was less than 5.00. For the same compound, the “Hill Slope” value (CDK16_CycY; slope of the IC50 fit) was -0.3, the pIC50 (CDK9_CycK; [1]) was less than 5.00 and the “Hill Slope” value (CDK9_CycK; slope of the IC50 fit) was -0.77. The pIC50 (CDK19_CycC) was 6.39, the “Hill Slope” value (CDK19_CycC; slope of the IC50 fit) was -0.45 and the pIC50 (CDK2_CycE1; [2]) was less than 5.00. The “Hill Slope” value (CDK2_CycE1; slope of the IC50 fit) was -0.94, the “Hill Slope” value (CDK6_CycD1) was -0.13 and the pIC50 (CDK1_CycA2; [2]) was less than 5.00. The “Hill Slope” value (CDK1_CycA2; slope of the IC50 fit) was -0.53, the pIC50 (CDK5_p35NCK; [1]) was less than 5.00 and the “Hill Slope” value (CDK5_p35NCK; slope of the IC50 fit) was -0.4. For the same compound, the pIC50 (CDK6_CycD2; [1]) was less than 5.00, the “Hill Slope” value (CDK6_CycD2; slope of the IC50 fit) was -0.59 and the “Hill Slope” value (CDK3_CycE1) was -0.12. For the same compound, the pIC50 (CDK7_CycH_MAT1; [1]) was less than 5.00, the “Hill Slope” value (CDK7_CycH_MAT1; slope of the IC50 fit) was -0.33 and the pIC50 (CDK20_CycH; [1]) was less than 5.00. The “Hill Slope” value (CDK20_CycH; slope of the IC50 fit) was -0.38 and the pIC50 (CDK8) was 8.31.
